This is an account of results in ChEMBL document CHEMBL1130303, “Evaluation of piperidinoethoxy moiety as an antiestrogenic substituent in non-steroidal anti-estrogens: Fertility regulation” (1997).

For test [1], the target named is Estrogen receptor (Rattus norvegicus) (UniProt P06211+Q62986). The test can be described thus: Relative Binding Affinity (RBA) for estrogen receptor in ovariectomized rats. The test is classed as protein assay.
Test [2] has as its system Rattus norvegicus. The test can be described thus: Antifertility activity at maximal effective dose in adult female rat in an antiestrogen assay; Inactive at 5 mg/kg dose. Set-up: dose 5 mg/kg. The test is classed as functional, organism-based.
Test [3] is filed under the species Rattus norvegicus. The test can be described thus: Antifertility activity at maximal effective dose in adult female rat in an antiestrogen assay. The test is classed as functional.
The species named for test [4] is Rattus norvegicus. The test can be described thus: Antifertility activity at maximal effective dose in adult female rat in an antiestrogen assay; Inactive. The test is classed as functional, organism-based.
In test [5] the test system is Rattus norvegicus. The test can be described thus: Antifertility activity at maximal effective dose in adult female rat in an antiestrogen assay; Inactive at 10 mg/kg dose. The test is classed as functional, organism-based. Also on record: dose 10 mg/kg.
Test [6] deals with Rattus norvegicus. The test can be described thus: Antifertility activity at maximal effective dose in adult female rat in an antiestrogen assay at 10 mg/kg. The test is classed as functional.

The structures appear in SMILES notation. Activity calls are given as the source filed them. No cut-off for these calls is given here.

In turn, `CC1(C)Oc2cc(O)ccc2C(c2ccc(OCCN3CCCCC3)cc2)=C1c1ccccc1` showed a relative binding affinity (RBA) in test [1] of 2.11. Further, the MED100 result in test [2] was “inactive”. Consider `COc1ccc2c(c1)OC(C)(C)C(c1ccccc1)=C2c1ccc(OCCN2CCCCC2)cc1`, for which the relative binding affinity (RBA) in test [1] is 0.53. Moreover, the MED100 in test [3] amounted to 10 mg/kg. For `CC1(C)Oc2cc(O)ccc2[C@@H](c2ccc(OCCN3CCCCC3)cc2)[C@@H]1c1ccccc1` the same measures were 50.1 and 0.2 mg/kg. `COc1ccc2c(c1)OC(C)(C)[C@@H](c1ccccc1)[C@@H]2c1ccc(OCCN2CCCC2)cc1` [LEVORMELOXIFENE]: the relative binding affinity (RBA) in test [1] was 5.24. For the same compound, the MED100 in test [3] is 0.25 mg/kg. On to `CC1(C)Oc2cc(O)ccc2[C@@H](c2ccc(OCCN3CCCC3)cc2)[C@H]1c1ccccc1`, for which, in test [4], the MED100 entry is “inactive”. `COc1ccc2c(c1)OC(C)(C)[C@H](c1ccccc1)[C@@H]2c1ccc(OCCN2CCCC2)cc1` showed a relative binding affinity (RBA) in test [1] of 0.16. Moreover, the MED100 entry in test [5] was “inactive”.

On to `COc1ccc2c(c1)OCC(c1ccccc1)C2c1ccc(OCCN2CCCCC2)cc1` (stereo not given), for which the relative binding affinity (RBA) in test [1] was 1.45. This compound also had an MED100 in test [3] of 0.25 mg/kg. On to `CC1(C)Oc2cc(O)ccc2[C@@H](c2ccc(OCCN3CCCCC3)cc2)[C@H]1c1ccccc1`, for which, in test [4], the MED100 entry was “inactive”. `CC1(C)Oc2cc(O)ccc2C(c2ccc(OCCN3CCCC3)cc2)=C1c1ccccc1` returned a relative binding affinity (RBA) in test [1] of 9.2. Besides, the MED100 in test [3] was determined as 15 mg/kg. Take `COc1ccc2c(c1)OCC(c1ccccc1)C2c1ccc(OCCN2CCCC2)cc1` (stereo not given): the relative binding affinity (RBA) in test [1] was determined as 7.35. Moreover, the MED100 in test [3] stood at 0.1 mg/kg. For `COc1ccc2c(c1)OC(C)(C)C(c1ccccc1)=C2c1ccc(OCCN2CCCC2)cc1` the same measures were 0.86 and 5 mg/kg. Regarding `COc1ccc2c(c1)OC(C)(C)[C@H](c1ccccc1)[C@@H]2c1ccc(OCCN2CCCCC2)cc1`, in test [6], the Activity turned out to be 90%. The compound `CC1(C)Oc2cc(O)ccc2[C@@H](c2ccc(OCCN3CCCC3)cc2)[C@@H]1c1ccccc1` displayed a relative binding affinity (RBA) in test [1] of 112. The compound also gave an MED100 in test [3] of 0.25 mg/kg. For `COc1ccc2c(c1)OC(C)(C)[C@@H](c1ccccc1)[C@@H]2c1ccc(OCCN2CCCCC2)cc1` the same measures were 3.77 and 0.1 mg/kg.
